# Data reported in BindingDB's records for PubMed 9353393 (Torrey Pines Institute For Molecular Studies, 1997).
# Residues, ends and D or L forms follow the SMILES beside them.
# Molecular target: Nociceptin receptor (Mus musculus, UniProt P35377)
# Sequence (P35377 whole entry): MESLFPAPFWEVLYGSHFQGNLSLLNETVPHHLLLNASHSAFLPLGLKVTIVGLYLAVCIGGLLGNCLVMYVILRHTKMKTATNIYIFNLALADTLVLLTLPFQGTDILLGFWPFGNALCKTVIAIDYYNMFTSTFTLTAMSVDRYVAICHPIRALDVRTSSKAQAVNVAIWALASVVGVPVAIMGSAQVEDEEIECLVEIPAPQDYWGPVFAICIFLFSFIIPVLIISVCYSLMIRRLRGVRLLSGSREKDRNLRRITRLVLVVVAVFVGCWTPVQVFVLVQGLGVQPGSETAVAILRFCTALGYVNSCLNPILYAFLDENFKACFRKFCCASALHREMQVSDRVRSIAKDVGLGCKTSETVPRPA
row,SMILES,Ki
1,CC(=O)N[C@@H](CCCNC(=N)N)C(=O)N[C@@H](Cc1ccc(O)cc1)C(=O)N[C@@H](Cc1ccc(O)cc1)C(=O)N[C@@H](CCCCN)C(=O)N[C@@H](Cc1c[nH]c2ccccc12)C(=O)N[C@@H](CCCN=C(N)N)C(N)=O [Ac-RYYKWR-NH2] (Ac-RYYKWR-NH2),1.47 nM
2,CC(=O)N[C@@H](CCCNC(=N)N)C(=O)N[C@@H](Cc1ccc(O)cc1)C(=O)N[C@@H](Cc1ccc(O)cc1)C(=O)N[C@@H](CCCNC(=N)N)C(=O)N[C@@H](Cc1c[nH]c2ccccc12)C(=O)N[C@@H](CCCN=C(N)N)C(N)=O [Ac-RYYRWR-NH2] (Ac-RYYRWR-NH2),0.6 nM
3,CC(=O)N[C@@H](CCCNC(=N)N)C(=O)N[C@@H](Cc1ccc(O)cc1)C(=O)N[C@@H](Cc1ccc(O)cc1)C(=O)N[C@@H](CCCNC(=N)N)C(=O)N[C@@H](Cc1c[nH]c2ccccc12)C(=O)N[C@@H](CCCCN)C(N)=O [CAS_200959-47-3] (Ac-RYYRWK-NH2),0.71 nM
4,CC[C@H](C)[C@H](NC(=O)[C@H](CCCN=C(N)N)NC(=O)[C@H](Cc1ccc(O)cc1)NC(=O)[C@H](Cc1ccc(O)cc1)NC(=O)[C@H](CCCN=C(N)N)NC(C)=O)C(=O)N[C@@H](CCCCN)C(N)=O [CAS_200959-48-4],1.5 nM
5,CC(C)C[C@H](NC(=O)[C@H](CCCCN)NC(=O)[C@H](CCCN=C(N)N)NC(=O)[C@H](C)NC(=O)[C@H](CO)NC(=O)[C@H](CCCCN)NC(=O)[C@H](CCCN=C(N)N)NC(=O)[C@H](C)NC(=O)CNC(=O)[C@@H](NC(=O)[C@H](Cc1ccccc1)NC(=O)CNC(=O)CNC(=O)[C@@H](N)Cc1ccccc1)[C@@H](C)O)C(=O)N[C@@H](C)C(=O)N[C@@H](CC(N)=O)C(=O)N[C@@H](CCC(N)=O)C(=O)O [OFQ 1-17],0.43 nM
